In patent publication US6770664B2, “Bicyclic heterocyclic substituted phenyl oxazolidinone antibacterials, and related compositions and methods” (priority 1999, dated 2004):

Row | melting point | SMILES
1 | 234 to 236 °C | CC(=O)NC[C@H]1CN(c2ccc(N3Cc4cnn(CC5CC5)c4C3)c(F)c2)C(=O)O1 (single isomer, unassigned) [Compound 73]
2 | 240 to 242 °C | CC(=O)NC[C@H]1CN(c2ccc(N3Cc4ccccc4C3)c(F)c2)C(=O)O1 [Compound 1, N-[[(5S)-3-[4-(1,3-Dihydro-2H-isoindol-2-yl)-3-fluorophenyl]-2-oxo-5-oxazolidinyl]methyl]acetamide]
3 | 208 to 212 °C (dec.) | O=C1O[C@@H](CO)CN1c1ccc(N2Cc3cccnc3C2)c(F)c1 [Compound 2, (5R)-3-[4-(5,7-Dihydro-6H-pyrrolo[3,4-b]pyridin-6-yl)-3-fluorophenyl]-5-(hydroxymethyl)-2-oxazolidinone]
4 | 220 to 225 °C (dec.) | CC(=O)NC[C@H]1CN(c2ccc(-n3cc4cccnc4c3)c(F)c2)C(=O)O1 [Compound 4]
5 | 181 to 185 °C (dec.) | CC(=O)NC[C@@H]1CN(c2ccc(-n3cc4cccnc4c3)c(F)c2)C(=O)O1 [Compound 6]
6 | 182 to 185 °C | O=C1O[C@@H](COc2ccon2)CN1c1ccc(N2Cc3cccnc3C2)c(F)c1 [Compound 7]
7 | 133 to 135 °C | O=C1O[C@@H](COc2ccon2)CN1c1ccc(-n2cc3cccnc3c2)c(F)c1 [Compound 8]
8 | 225 to 230 °C | O=C1O[C@@H](COc2cnccn2)CN1c1ccc(N2Cc3cccnc3C2)c(F)c1 [Compound 9]
9 | 192 to 194 °C | O=C1O[C@@H](COc2cnccn2)CN1c1ccc(-n2cc3cccnc3c2)c(F)c1 [Compound 10]
10 | 185 to 187 °C | O=C1O[C@@H](COc2cnsn2)CN1c1ccc(N2Cc3cccnc3C2)c(F)c1 [Compound 11]
11 | 185 to 188 °C | O=C1O[C@@H](COc2cnsn2)CN1c1ccc(-n2cc3cccnc3c2)c(F)c1 [Compound 12]
12 | 110 to 112 °C | CCC(=O)NC[C@H]1CN(c2ccc(N3Cc4cccnc4C3)c(F)c2)C(=O)O1 [Compound 13]
13 | 235 to 240 °C | O=C(NC[C@H]1CN(c2ccc(N3Cc4cccnc4C3)c(F)c2)C(=O)O1)C1CC1 [Compound 15]
14 | 172 to 176 °C | CS(=O)(=O)NC[C@H]1CN(c2ccc(N3Cc4cccnc4C3)c(F)c2)C(=O)O1 [Compound 20]
15 | 204 to 207 °C | CS/C(=N\C#N)NC[C@H]1CN(c2ccc(N3Cc4cccnc4C3)c(F)c2)C(=O)O1 [Compound 22]
16 | 202 to 206 °C | N/C(=N\[N+](=O)[O-])NC[C@H]1CN(c2ccc(N3Cc4cccnc4C3)c(F)c2)C(=O)O1 [Compound 24]
17 | 219 to 225 °C (dec.) | CC(=O)NC[C@H]1CN(c2ccc(-n3cc4cc[n+]([O-])cc4c3)c(F)c2)C(=O)O1 [Compound 27, N-[[(5S)-3-[3-Fluoro-4-(5-oxido-2H-pyrrolo[3,4-c]pyridin-2-yl)phenyl]-2-oxo-5-oxazolidinyl]methyl]acetamide]
18 | 219 to 225 °C (dec.) | CC(=O)NC[C@H]1CN(c2ccc(-n3cc4ccncc4c3)c(F)c2)C(=O)O1 [Compound 28]
19 | 234 °C (dec.) | CC(=O)NC[C@H]1CN(c2ccc(N3Cc4cnc(C)nc4C3)c(F)c2)C(=O)O1 [Compound 35]
20 | 230 to 232 °C | CC(=O)NC[C@H]1CN(c2ccc(N3Cc4cncnc4C3)c(F)c2)C(=O)O1 [Compound 36]
21 | 164 to 166 °C | CC(=O)NC[C@H]1CN(c2ccc(-n3cc4cncnc4c3)c(F)c2)C(=O)O1 [Compound 37]

Row | melting point | SMILES
22 | 212 to 214 °C | CC(=O)NC[C@H]1CN(c2ccc(N3Cc4cnc(-c5cnccn5)nc4C3)c(F)c2)C(=O)O1 [Compound 38]
23 | 245 to 250 °C (dec.) | CC(=O)NC[C@H]1CN(c2ccc(N3Cc4cnc(-c5ccncc5)nc4C3)c(F)c2)C(=O)O1 [Compound 41]
24 | 216 to 220 °C | CC(=O)NC[C@H]1CN(c2ccc(N3Cc4cnc(-c5ccccn5)nc4C3)c(F)c2)C(=O)O1 [Compound 42]
25 | 265 to 270 °C (dec.) | CC(=O)NC[C@H]1CN(c2ccc(N3Cc4cnc(-c5cccnc5)nc4C3)c(F)c2)C(=O)O1 [Compound 43]
26 | 244 to 247 °C (dec.) | CC(=O)NC[C@H]1CN(c2ccc(N3Cc4c[nH]nc4C3)c(F)c2)C(=O)O1 [Compound 44]
27 | 204 to 208 °C | CCCn1ncc2c1CN(c1ccc(N3C[C@H](CNC(C)=O)OC3=O)cc1F)C2 [Compound 45]
28 | 211 to 214 °C | CC(=O)NC[C@H]1CN(c2ccc(N3Cc4ccccc4C3=O)c(F)c2)C(=O)O1 [Compound 46, N-[[(5S)-3-[4-(1,3-dihydro-1-oxo-2H-isoindol-2-yl)-3-fluorophenyl]-2-oxo-5-oxazolidinyl]methyl]acetamide]
29 | 240 to 242 °C | CC(=O)NC[C@H]1CN(c2ccc(N3C(=O)c4ccccc4C3=O)c(F)c2)C(=O)O1 [Compound 47]
30 | 230 to 232 °C | CC(=O)NC[C@H]1CN(c2ccc(N3Cc4cccnc4C3=O)c(F)c2)C(=O)O1 [Compound 48]
31 | 207 to 209 °C | CC(=O)NC[C@H]1CN(c2ccc(N3Cc4ncccc4C3=O)c(F)c2)C(=O)O1 [Compound 49]
32 | 211 to 213 °C | CC(=O)NC[C@H]1CN(c2ccc(N3Cc4cnn(C)c4C3)c(F)c2)C(=O)O1 [Compound 50]
33 | 259 to 261 °C (dec.) | CC(=O)NC[C@H]1CN(c2ccc(N3Cc4cn(-c5ccccn5)nc4C3)c(F)c2)C(=O)O1 [Compound 51]
34 | 155 to 157 °C | CC(=O)NC[C@H]1CN(c2ccc(N3Cc4cnn(C(C)(C)C)c4C3)c(F)c2)C(=O)O1 [Compound 52]
35 | 163 to 165 °C | CC(=O)NC[C@H]1CN(c2ccc(N3Cc4cnn(CCO)c4C3)c(F)c2)C(=O)O1 [Compound 53]
36 | 232 to 242 °C (dec.) | CC(=O)NC[C@H]1CN(c2ccc(N3Cc4cn(CCO)nc4C3)c(F)c2)C(=O)O1 [Compound 65, N-[[(5S)-3-[4-[2,6-dihydro-2-(2-hydroxyethyl)pyrrolo[3,4-c]pyrazol-5(4H)-yl]-3-fluorophenyl]-2-oxo-5-oxazolidinyl]methyl]acetamide]
37 | 188 to 191 °C | CC(=O)NC[C@H]1CN(c2ccc(N3Cc4cn(C[C@H](O)CO)nc4C3)c(F)c2)C(=O)O1 [Compound 66]
38 | 171 to 173 °C | CC(=O)NC[C@H]1CN(c2ccc(N3Cc4cn(CCCO)nc4C3)c(F)c2)C(=O)O1 [Compound 68]
39 | 184 to 188 °C | CC(=O)NC[C@H]1CN(c2ccc(N3Cc4cn(C[C@@H](O)CO)nc4C3)c(F)c2)C(=O)O1 [Compound 69]
40 | 170 to 172 °C | CC(=O)NC[C@H]1CN(c2ccc(N3Cc4cn(CC(F)(F)F)nc4C3)c(F)c2)C(=O)O1 [Compound 70]
41 | 246 to 249 °C | CNC(=S)n1cc2c(n1)CN(c1ccc(N3C[C@H](CNC(C)=O)OC3=O)cc1F)C2 [Compound 87]
42 | 175 to 180 °C (dec.) | [N-]=[N+]=NC[C@H]1CN(c2ccc(N3Cc4cccnc4C3)c(F)c2)C(=O)O1 [Example 7]
